Patent publication EP0129667A1, “Compounds and pharmaceutical compositions for treatment of hypoovarianism” (Takeda Chemical Industries, Ltd., priority 1983, dated 1985)

What was measured:
[1] = tested on: young oophorectomized rats; assay: E activity-potentiating effect in young oophorectomized rats (uterine wet weight); assay type: in vivo, Spraque-Dawley rats; conditions: 3 days; for increase of uterine weight by the compound alone: without estrone; for Uterine wet weight (mg ± S.D.): autopsy on 4th day
Procedure: Spraque-Dawley rats, 33 days of age and 11 days after oophorectomy for elimination of endogenous E activity, were assigned to groups of 5 to 7 individuals and treated subcutaneously with solutions of esterone in sesame oil or orally with suspensions of Compound A in 1% hydroxypropylcellulose solution, either independently or in combination, for 3 days. On the 4th day, each animal was autopsied and its uterine wet weight was recorded. […] Spraque-Dawley rats, 33 days of age and 11 days after oophorectomy for elimination of endogenous E activity, were assigned to groups of 5 to 7 individuals and treated subcutaneously with solutions of esterone in sesame oil or orally with suspensions of Compound B in 1% hydroxypropylcellulose solution, either independently or in combination, for 3 days. On the 4th day, each animal was autopsied and its uterine wet weight was recorded.

ICR mice = assay: Acute toxicity in mice; assay type: in vivo; conditions: 5-week-old ICR mice, 14 days observation, LD50 could not be calculated
Procedure: (§1) Five-week-old ICR mice and 5-week-old Spraque-Dawley rats were used in groups of 10 males and 10 females, and suspensions of compound A or B in olive oil were administered orally [2,500, 5,000 and 10,000 mg/kg of each compound] or subcutaneously (1,250, 2,500 and 5,000 mg/kg). The animals were kept under observation for 14 days.

Spraque-Dawley rats = assay: Acute toxicity in rats; assay type: in vivo; conditions: 5-week-old Spraque-Dawley rats, 14 days observation, LD50 could not be calculated
Procedure: as §1

[2] = oral 2,500, 5,000 and 10,000 mg/kg in olive oil
[3] = subcutaneous 1,250, 2,500 and 5,000 mg/kg in olive oil

## O=c1c(-c2ccccc2)coc2cc(O)ccc12 [Compound A, 7-hydroxy-isoflavone]
[1]; Compound A at 50 and 100 mg/kg oral with estrone subcutaneous
  potentiation of the uterine weight increasing action of estrone: potentiated the uterine weight increasing action of estrone
[1]; Compound A at 50 and 100 mg/kg oral
  increase of uterine weight by the compound alone: did not cause an increase of uterine weight
[1]; Table 1, Compound A 50 mg/kg daily oral, estrone 0
  Uterine wet weight (mg ± S.D.): 35.3 ± 1.7 mg
[1]; Table 1, Compound A 100 mg/kg daily oral, estrone 0
  Uterine wet weight (mg ± S.D.): 35.9 ± 1.0 mg
[1]; Table 1, estrone 1.0 µg/kg daily subcutaneous + Compound A 50 mg/kg daily oral
  Uterine wet weight (mg ± S.D.): 60.8 ± 4.1 mg
[1]; Table 1, estrone 1.0 µg/kg daily subcutaneous + Compound A 100 mg/kg daily oral
  Uterine wet weight (mg ± S.D.): 70.6 ± 2.7 mg

## CC(C)Oc1ccc2c(=O)c(-c3ccccc3)coc2c1 [Compound B, 7-isopropyloxy-isoflavone]
[1]; Compound B at 50 and 200 mg/kg oral with estrone subcutaneous
  potentiation of the uterine weight increasing action of estrone: potentiated the uterine weight increasing action of estrone
[1]; Compound B at 50 and 200 mg/kg oral
  increase of uterine weight by the compound alone: did not cause an increase of uterine weight
[1]; Table 2, Compound B 50 mg/kg daily oral, estrone 0
  Uterine wet weight (mg ± S.D.): 32.2 ± 1.3 mg
[1]; Table 2, Compound B 200 mg/kg daily oral, estrone 0
  Uterine wet weight (mg ± S.D.): 34.7 ± 1.2 mg
[1]; Table 2, estrone 0.5 µg/kg daily subcutaneous + Compound B 50 mg/kg daily oral
  Uterine wet weight (mg ± S.D.): 39.6 ± 2.4 mg
[1]; Table 2, estrone 0.5 µg/kg daily subcutaneous + Compound B 200 mg/kg daily oral
  Uterine wet weight (mg ± S.D.): 51.3 ± 5.3 mg
[1]; Table 2, estrone 1.0 µg/kg daily subcutaneous + Compound B 50 mg/kg daily oral
  Uterine wet weight (mg ± S.D.): 58.2 ± 2.6 mg
[1]; Table 2, estrone 1.0 µg/kg daily subcutaneous + Compound B 200 mg/kg daily oral
  Uterine wet weight (mg ± S.D.): 71.5 ± 7.4^+ mg
ICR mice; [2]
  deaths and toxic symptoms (acute toxicity): None of the groups showed deaths nor toxic symptoms
ICR mice; [3]
  deaths and toxic symptoms (acute toxicity): None of the groups showed deaths nor toxic symptoms
Spraque-Dawley rats; [2]
  deaths and toxic symptoms (acute toxicity): None of the groups showed deaths nor toxic symptoms
Spraque-Dawley rats; [3]
  deaths and toxic symptoms (acute toxicity): None of the groups showed deaths nor toxic symptoms

## C[C@]12CC[C@@H]3c4ccc(O)cc4CC[C@H]3[C@@H]1CCC2=O [estrone, reference compound]
[1]; Table 1, estrone 1.0 µg/kg daily subcutaneous alone (Compound A 0)
  Uterine wet weight (mg ± S.D.): 52.6 ± 2.3 mg
[1]; Table 2, estrone 0.5 µg/kg daily subcutaneous alone (Compound B 0)
  Uterine wet weight (mg ± S.D.): 36.3 ± 1.9 mg
[1]; Table 2, estrone 1.0 µg/kg daily subcutaneous alone (Compound B 0)
  Uterine wet weight (mg ± S.D.): 51.9 ± 4.2 mg
